In PMC12406664, “New derivatives of 6-nitrocoumarin-3-thiosemicarbazone exhibit improved antiparasitic activity in the placenta against Trypanosoma cruzi and Toxoplasma gondii” (Antimicrobial Agents and Chemotherapy, 2025):
“Also recorded” adds a separate entry of the source.

Tests used:
[1] = test system: HPE exposed to T. gondii tachyzoites; assay: Histopathology of HPE infected with T. gondii; format: cell-based, human; settings: IC50 concentration
Description: (§1) Cells or HPE were exposed to parasites. […] The following treatment conditions were used in both infection models. […] Untreated cells or HPE served as a negative control, and the compounds’ activity was compared with the reference drugs (NFX and PMN).

[2] = test system: T. gondii (RH strain) in HPE; assay: T. gondii DNA load in infected human placental explants (HPE) by real-time qPCR; format: cell-based, Toxoplasma gondii; settings: 24 hour post-infection treatment, IC50 concentration
Experimental: The effect on HPE infection of compounds 1 and 7 by Toxoplasma gondii and Trypanosoma cruzi, respectively, was evaluated. To do this, the DNA of the T. gondii or T. cruzi parasite was quantified by infecting HPE for 24 hours under treatment conditions of co-incubation of compounds with the parasite at the same time of infection, and with a 24 hour post-infection treatment. The compound’s IC50 concentration value previously obtained under both conditions was used.
Term human placentas were obtained from uncomplicated pregnancies via scheduled cesarean sections. Each patient provided informed consent for the experimental use of the placenta, and the study was approved by the ethics committee of Hospital San José, Servicio Salud Metropolitano Norte (N° 013/2022). Exclusion criteria for placental use included significant fetal anomalies, placental tumors, intrauterine infection, positive serology for Chagas disease, obstetric pathology, and any other maternal disease. Donor patients tested negative for T. gondii IgG/IgM antibodies. Organs were collected in sterile, cold PBS and processed within 30 minutes after delivery. Maternal and fetal surfaces of each placenta were discarded, and the villous tissue from the central part of the placental cotyledons was isolated. […] All the experiments were performed in triplicate in at least three different placentas.
Cells or HPE were exposed to parasites. […]
Subsequently, cells were exposed to parasites at a 1:1 ratio (cell: parasite) for 24 hours. […] The resulting DNA was quantified using a μDrop Plate DNA quantification system on the Varioskan Flash multimode reader (Thermo Scientific, USA). […]
Amplification was carried out using the CFX96 Touch Deep Well Real-Time PCR Detection System (Biorad, California, USA) with the following cycling program: initial denaturation at 95°C for 3 min, followed by 40 cycles of denaturation at 95°C for 5 s, annealing at 60°C for 30 s, and a dissociation stage ranging from 60°C to 95°C. The relative quantification analysis of the results was expressed as RQ values using the comparative […] (∆∆Ct) ([80]).

[3] = Cytotoxicity on cells (resazurin), EA.hy926; format: cell-based; settings: human, EA.hy926 endothelial cells
Description: Triton X-100 was used as a positive control, and untreated cells served as a negative control. In addition, the maximum concentration of DMSO was used as a control for the method. […] The obtained values were expressed as IC50([88]).

[4] = test system: T. gondii (RH strain) in BeWo cells; assay: Infection of BeWo cells by T. gondii, infected cells counted by fluorescence microscopy; format: cell-based, Toxoplasma gondii; settings: compound at IC50, untreated control 64 ± 6
Experimental: The effect of the compounds on the infection of BeWo trophoblast cells by T. gondii and T. cruzi was assessed. The DNA of T. gondii and T. cruzi was quantified in infected BeWo cells treated for 24 hours under two conditions: co-incubation and post-infection treatment. […] Fluorescence microscopy was employed to quantify the number of infected cells. The resulting images were analyzed using ImageJ software to count both infected and uninfected cells.
For the microscopic analysis of BeWo cells infected with T. cruzi, the cells were washed with PBS to remove the supernatant, fixed with 90% cold methanol, rewashed with PBS, and incubated for 5 minutes with 1 µg/mL—1 4,6-diamidino-2-phenylindole (DAPI) (Molecular Probes). To analyze BeWo cells infected with T. gondii, cells were fixed with 90% cold methanol, washed with PBS containing 0.05% Tween, and blocked using 3% BSA for 1 hour at 37°C. Then, they were incubated with the primary monoclonal antibody Toxoplasma gondii (TP3): sc-52255 at a dilution of 1:500 with 1% BSA overnight at 4°C. Afterward, the samples were incubated with the FITC anti-mouse IgG secondary antibody at a dilution of 1:100 with 1% BSA for 1 hour at 37°C. Finally, they were washed with PBS containing 0.05% Tween and incubated for 5 minutes with DAPI. Subsequently, the sections were mounted in Vectashield (ScyTek ACA). Sections for the analysis of cell infection by T. cruzi and T. gondii were observed under an epifluorescence microscope (Motic BA 310), and images were captured with a Motic 5 camera. T. cruzi amastigotes were identified by their morphology, including nuclear size and the presence of a kinetoplast, and were analyzed and quantified using ImageJ. At least 500 cells per condition were analyzed, and infected and non-infected cells were counted for every 100 cells ([35], [70]).
as §1

[5] = test system: T. gondii tachyzoites, RH strain; assay: Resazurin viability assay on free T. gondii tachyzoites; format: cell-based, Toxoplasma gondii
Description: Untreated parasites served as a negative control.

With `C/C(=N\NC(N)=S)c1c(O)c2cc([N+](=O)[O-])ccc2oc1=O` [Compound 1, (E)−2-(1-(4-hydroxy-6-nitro-2-oxo-2H-chromen-3-yl)ethylidene)hydrazine-1-carbothioamide] the “tissue damage in infected HPE (histopathology)” value ([1]; co-incubation) was “prevented tissue damage induced by tachyzoites”, the “tissue damage in infected HPE (histopathology)” value ([1]; post-infection treatment) was “did not reduce the parasitic load or mitigate tissue damage” and the “effect on parasite DNA load” value [2] was “not statistically significant; also recorded: did not reduce the parasitic load”. The CC50 at 24 h [3] was > 400 µM, the “Infected cells (%)” value ([4]; co-incubation 24 h) was 32 ± 7% and the “Infected cells (%)” value ([4]; post-infection treatment 24 h) was 52 ± 4%. The IC50 ([5]; Toxoplasma gondii, extracellular tachyzoites RH strain, 24 h, resazurin) was 17.3 ± 0.5 µM, the viability at 100 µM ([5]; Toxoplasma gondii, tachyzoites RH, 100 µM, 24 h) was 24.3 ± 10.4% and the “SI = BeWo CC50/parasite IC50” value ([5]; parasite T. gondii) was 22.3. The “SI = EA.hy926 CC50/parasite IC50” value ([5]; parasite T. gondii) was >23.1.
